Patent publication US12037372B2, “Bioactive peptides derived from snakes” (Universiteit Leiden, priority 2018, dated 2024)
Entries after “also recorded” stand apart in the source; their conditions may differ.

Legend:
[1] = tested on: MDR S. aureus (LUH 14616), MRSA; assay: Bactericidal activity of peptides (in vitro killing assay); format: cell-based, Staphylococcus aureus; settings: 50% v/v human plasma
Protocol: (§1) Enterococcus faecium (LUH 15122), Staphylococcus aureus (LUH 14616), Klebsiella pneumoniae (LUH 15104), Acinetobacter baumannii (RUH 875), Pseudomonas aeruginosa (LUH 15103), Enterobacter cloacae (LUH 15114) and Escherichia coli (LUH 15117) were used. Prior to experimentation the bacteria were taken from a glycerol stock stored at −80° C. and cultured overnight on sheep blood agar plates at 37° C. On the day of experimentation the bacteria were cultured in tryptic soy broth (TSB; Oxoid) for 2.5 hours at 37° C. and 200 rpm to a mid-logarithmic phase. The bacterial suspension was washed in phosphate buffered saline (PBS; pH 7.4), centrifuged for 10 minutes at 3000 rpm, and resuspended in PBS to the desired concentration, as determined by measuring the absorbance at 600 nm.
(§2) As a control the bacteria were also incubated in PBS with either 50% plasma or 50% urine without peptide. The plate was incubated for 2 hours at 37° C. and 200 rpm. After incubation the number of viable bacteria was determined microbiologically by plating the samples and a 10-times dilution series in PBS on diagnostic sensitivity test agar plates (DST; Sigma). The DST plates were incubated overnight at 37° C. Results were expressed as lethal concentration 99.9, or LC99.9, which represents the lowest concentration of peptide that killed 99.9% of the bacteria within 2 hours of incubation.

[2] = tested on: multidrug resistant strain Acinetobacter baumannii RUH875; assay: as above; format: cell-based; settings: for LC99.9, bactericidal activity: MDR A. baumannii, PBS with 50% plasma
Protocol: as §1, §2

[3] = tested on: colistin-resistant E. coli (LUH 15117); assay: as above; format: cell-based, Escherichia coli; settings: PBS with 50% plasma, 2 hours
Protocol: as §1, §2

[4] = tested on: MDR K. pneumoniae (LUH 15104); assay: as above; format: cell-based, Klebsiella pneumoniae; settings: PBS with 50% plasma, 2 hours
Protocol: as §1, §2

[5] = tested on: MDR E. cloacae (LUH 15114); assay: as above; format: cell-based, Enterobacter cloacae; settings: PBS with 50% plasma, 2 hours
Protocol: as §1, §2

E. faecium (LUH 15122) = assay: as above; format: cell-based, Enterococcus faecium; settings: PBS with 50% plasma, 2 hours
Protocol: as §1, §2

S. aureus LUH 14616 = assay: Resistance development assay; format: cell-based, Staphylococcus aureus; settings: 20 passages
Protocol: (§3) A bacterial culture was prepared and washed as described before. The bacterial culture was diluted to a concentration of 5×10^6 CFU/ml in modified RPMI 1640 comprising 20 mM HEPES, L-glutamine and without sodium bicarbonate (RPMImod; Sigma-Aldrich). In a polypropylene 96-well plate, a two-fold peptide dilution series was made in RPMImod with concentrations ranging from 0.94 μM to 240 μM. […] A negative control of RPMImod without peptide or an antibiotic was included for both dilution series. A contamination control was included containing only RPMImod. To all the wells, except the contamination control wells, 5 μl of the bacterial suspension were added. The plate was sealed and incubated overnight at 37° C. and 200 rpm. After incubation the MIC was determined as the well with the lowest peptide concentration and no bacterial growth. The well with half the MIC was diluted 2.5-fold with RPMImod and transferred to an Eppendorf tube. […] The results were expressed as the fold increase of the MIC compared to the MIC at the first passage.

A. Baumannii [6] = assay: Resistance development assay; format: cell-based, Acinetobacter baumannii; settings: 20 passages
Protocol: as §3

E. coli = assay: Resistance development assay; format: cell-based, Escherichia coli; settings: 20 passages
Protocol: as §3

[7] = tested on: 24-hour biofilm of A. baumannii RUH 875; assay: Biofilm breakdown assay; format: cell-based, Acinetobacter baumannii; settings: 2-hour treatment
Protocol: To a polypropylene 96-well flat-bottom plate (Greiner) 50 μl of a bacterial suspension at a concentration of 1×10^7 CFU/ml in BM2 medium (Overhage et al., 2008) were added. A control comprising BM2 medium alone was included. The plate was sealed off with a seal (Costar) and incubated in a humidified environment for 24 hours at 37° C. Thereafter the wells were washed 2 times with PBS. […] The plate was sealed off and incubated for 2 hours at 37° C. and 200 rpm. For analysis the plate was sonicated (Ultrasoonbad BRANSONIC® m1800H-E; Boom b.v.) for 5 minutes to detach the biofilm bacteria. The number of viable bacteria in the sonicates was determined microbiologically by plating the samples and a 10-times dilution series on DST agar plates and incubating these overnight at 37° C. Results were expressed as the LC99.9.

A. Baumannii [8] = assay: Killing of A. baumannii in BM2 medium (control); format: cell-based, Acinetobacter baumannii; settings: 0.8 μM peptide
Protocol: As a control, the ability of these peptides to kill A. baumannii in BM2 medium was assessed.

[9] = tested on: MRSA (S. aureus LUH 14616) on ex vivo human skin; assay: Ex vivo skin model; parameters: species or system Staphylococcus aureus; settings: 10 μl peptide solution; 1 hour treatment
Source text: The donor skin was transported to the LUMC in RPMI 1640 medium (Gibco) supplemented with penicillin/streptomycin (Gibco). Skin samples were washed in PBS and left overnight in RPMI 1640 medium without antibiotics. On the day of the experiment the skin was again washed in PBS, then spread out and punches with a diameter of 8 mm diameter were made with a biopsy punch (Stiefel). The skin samples were dried with a cotton swab. A liquid dam was made with LC Block-Out Resin (Ultradent) on the edge of the skin samples to prevent liquids from dripping off. The liquid dam was solidified by 4 seconds exposure of UV light (Super 1200 led; ECO). The skin samples were placed on grids in a 12-well plate (Costar) filled underneath with medium comprising Ham F12, DMEM and FCS (Gibco). An S. aureus LUH 14616 bacterial suspension was cultured and washed as described before. The skin punches were inoculated with 5 μl of the bacterial suspension (1×10^8 CFU/ml) for one hour at 37° C. and 5% CO2. […] The infected skin was treated for 1 hour at 37° C. and 5% CO2 with 10 μl of the peptide solutions, including a control with 10 μl of PBS alone. Polypropylene tubes were filed with glass beads (1.7 mm diameter) and 1 ml of PBS. The liquid dam was removed from the skin after treatment. […] Results were expressed as the number of viable bacteria (CFU/ml) after treatment.

[10] = tested on: lipopolysaccharide from E. coli J5 (LPS); assay: LPS neutralization by peptides (whole blood, IL-12p40 ELISA); format: cell-based, human; settings: compared to the LPS control
Protocol: Heparinized blood collected from healthy human volunteers was diluted five times in RPMI 1640. Next, 195 μl of diluted blood were pipetted in to the wells of a 96-well cell culture plate. In another 96-well polypropylene V-bottom plate, 15 μl of peptide solution with final concentrations of 1 nM to 1000 nM were mixed with 15 μl of 500 ng/ml lipopolysaccharide from E. coli J5 (LPS; Sigma) for 30 minutes at 37° C. and 200 rpm. After incubation the mixtures were diluted five times with 120 μl of RPMI. From the diluted mixtures 5 μl were transferred to the wells of the plate containing the 195 μl of blood. The plate was incubated for 20 hours at 37° C. and 5% CO2. The plate was centrifuged for 5 minutes at 1200 rpm. The supernatants were stored as aliquots at −20° C. until analysis of the cytokine level by ELISA. The IL-12p40 sandwich ELISA from Invitrogen was used. ELISAs were performed according to manufacturer's instructions. Results were expressed as the concentration IL-12p40 in pg/ml.

[11] = tested on: persisters originating from matured, antibiotic-exposed, MRSA biofilms; assay: Activity against persisters; format: cell-based, Staphylococcus aureus
[12] = tested on: MDR P. aeruginosa (LUH 15103); assay: Bactericidal activity of peptides (in vitro killing assay); format: cell-based, Pseudomonas aeruginosa; settings: 2-hour treatment, 50% v/v human plasma, median (range)
Protocol: as §1, §2

[13] = tested on: melanoma cells and other cancer cells; settings: Wang et al.; cited from earlier work
melanoma = settings: Wang et al.; cited from earlier work
[14] = tested on: drug-sensitive strain Escherichia coli LUH15108; assay: Bactericidal activity of peptides (in vitro killing assay), alanine scan; format: cell-based; settings: lowest concentration killing 99.9% of an inoculum of about one million bacteria, 50% (v/v) human plasma, within 2 hours
Protocol: The amino acids of the SP27 peptide were substituted at various positions with Alanine. The substituted peptides were tested on A. baumannii and E. coli bacterial strains for having antimicrobial activity. Furthermore, the substituted peptides were tested for their hemolytic activity as an indicator for their toxicity.

MRSA = settings: Cai et al., 2018; cited from earlier work
P. aeruginosa = settings: Cai et al., 2018; cited from earlier work

Row | Sequence | LC99.9, bactericidal activity ([2]; 2 hours) | LC99.9, bactericidal activity [3] | LC99.9, bactericidal activity [4] | LC99.9, bactericidal activity [5] | LC99.9, bactericidal activity (E. faecium (LUH 15122)) | resistance development: fold increase of the MIC (S. aureus LUH 14616) | resistance development: fold increase of the MIC (A. Baumannii [6]) | resistance development: fold increase of the MIC (E. coli) | peptide concentration with complete elimination of the biofilms [7] [µM] | reduction of viable bacteria (A. Baumannii [8]) [log] | peptide concentration killing 99.9% of the MRSA on ex vivo human skin [9] [µM] | also measured
1 | KRFKKFFKKLKNNVKKRVKKFFRKPRVIGVTIPF [SP4] | submicromolar concentrations | submicromolar concentrations | submicromolar concentrations | submicromolar concentrations | low micromolar concentrations | remained constant for all 20 passages; also recorded: limited resistance | remained constant for all 20 passages | remained constant for all 20 passages | 51.2 | 2 | 102.4 | LC99.9 ([1]; Table 2, MDR S. aureus, concentration inducing 3 log reduction of viable bacteria): 3.2 µM; LPS neutralization (IL-12p40 production) ([10]; 100 nM peptide): 74%; LPS neutralization (IL-12p40 production) ([10]; 1000 nM peptide): 96%; activity against persisters [11]: highly effective
2 | KRFKKFFRKLKKSVKKRAKEFFKKPRVIGVSIPF [SP5] |  |  |  |  |  |  |  |  |  |  |  | LC99.9 (μM) MRSA in 50% plasma ([1]; MDR S. aureus LUH 14616, 2-hour treatment, lowest concentration killing ≥99.9%, median (range)): 25.6 µM; LC99.9 (μM) MDR P. aeruginosa in 50% plasma [12]: 0.4 µM; effect on melanoma cells and other cancer cells in vitro [13]: inhibits; tumor load in melanoma-bearing mice (melanoma): reduces the tumor load
3 | KRFKKFFRKVKKGVHRYFKKNKFYIAATIPYYG [SP27] | submicromolar concentrations | submicromolar concentrations | submicromolar concentrations | submicromolar concentrations | low micromolar concentrations | remained constant for all 20 passages; also recorded: limited resistance | remained constant for all 20 passages | remained constant for all 20 passages | 51.2 | 2 | 204.8 | LC99.9 (μM) A. baumannii ([2]; Table 5, 50% (v/v) human plasma, 2 hours): 0.8 µM; LC99.9 (μM) A. baumannii ([2]; Table 6, 50% (v/v) human plasma, 2 hours): 0.8 µM; LC99.9 (μM) A. baumannii ([2]; lowest concentration killing 99.9% of an inoculum of about one million bacteria in 50% (v/v) human plasma within 2 hours, A. baumannii RUH875): 0.8 µM; LC99.9 (μM) A. baumannii ([2]; lowest concentration killing 99.9% of an inoculum of about one million bacteria, 50% (v/v) human plasma, within 2 hours, A. baumannii RUH875): 0.8 µM; LC99.9 (μM) A. baumannii ([2]; lowest concentration of the peptide that kills 99.9% of an inoculum of about one million bacteria in the presence of 50% (v/v) human plasma within 2 hours, Acinetobacter baumannii RUH875): 0.8 µM; LC99.9 (μM) E. coli [14]: 1.6 µM
4 | KRFQNFFRELEKKFREFFRVYRITIGATIRF [SP16] |  |  |  |  |  |  |  |  |  |  |  | bactericidal effect against MRSA (MRSA): no bactericidal effect; bactericidal effect against P. aeruginosa (P. aeruginosa): no bactericidal effect
